# Measured values: a melting point compilation (Tetko et al.; mined from patent text by program, amines drawn as free bases though some values may be those of a salt)
row,Structure (SMILES),melting point [°C]
1,c1ccc(-c2cnns2)cc1,46 to 48
2,N#Cc1ccc(-c2cnc3c(c2)N(Cc2ccccc2)C(=O)CN3)cn1,> 200
3,O=C1c2cccc3cc4ccccc4c(c23)C(=O)N1CCNCCCNCCN1C(=O)c2cccc3cc4ccccc4c(c23)C1=O,191
4,CCOc1nn(Cc2ccc(OCc3cncc(-c4ccccc4)c3)cc2)cc1CCC(=O)O,92 to 93
5,COC(=O)c1ccc(NC(=O)Cc2ccc(OC)c(C34CC5CC(CC(C5)C3)C4)c2)cc1,146 to 147
6,CCc1cc(C(=O)c2ccccc2Cl)c(-n2c(C)nnc2Cc2cccc(OC(N)=O)c2Cl)s1,134 to 136
7,COc1cc2nc(N3CCc4c(CN5CCOCC5)cccc4C3)[nH]c(=O)c2cc1OC,228 to 230
8,COc1cc(OC)nc(NC(=O)N=NS(=O)(=O)C2SCCCN2C)n1 (stereo not given),188 to 190
9,CC(C)(C)C(=O)OC1C(c2ccccc2)=C(c2ccc(S(C)(=O)=O)cc2)C1(C)C (stereo not given),66 to 67
10,CC(C)C1(C)NC(c2nc3ccc(Cl)cc3cc2C(=O)O)=NC1=O (stereo not given),234 to 237
11,COc1cc(C)c(C)cc1NC(=O)N1CCN(c2cccc(O)c2)CC1,177 to 178
12,COc1ccccc1-c1ccc(S(N)(=O)=O)c(N)c1,219 to 221
13,Cc1cccc2ncc(C(=O)NC(C)(C)CC(C)(C)C)c(=O)n12,126 to 129
14,NC(=O)c1c(I)c(C(=O)N(CC(O)CO)CC(O)CO)c(I)c(N2CCCCC2=O)c1I (stereo not given),214 to 219
15,CCSc1ccc(C(=O)NCc2ccc3c(c2)C(=O)N(C2(C)CCC(=O)NC2=O)C3=O)cc1 (stereo not given),135 to 137
16,Cc1cc(C)c2c(c1)NC(C)C2 (stereo not given),75
17,CN(C)c1c(S(=O)(=O)C(F)(F)F)c(C#N)nn1-c1c(Cl)cc(C(F)(F)F)cc1Cl,178 to 179
18,CC(=O)NCCc1cnn2ccc3c(c12)CCO3,174 to 175
19,CN1Cc2c(C#N)ncn2-c2sccc2C1=O,197 to 200
20,O=Cc1c(Br)ncn1Cc1cc2c(cc1Cl)OCO2,136
21,CCNC(=NS(=O)(=O)c1ccc(N)cc1)N1CC2(C=N1)CCCC2,141 to 142
22,Nc1n[nH]c2ccc(Cl)cc12,162 to 163
23,CCn1nc(C)c2c1C1=NCCN1C(C)=N2,168 to 170
24,O=C1NC(=O)C(C2CC=CCC2)O1 (stereo not given),83 to 86
25,CCCCSc1c(N)cc(C(=O)O)cc1S(N)(=O)=O,223 to 224
26,O=c1cc(Cl)cnn1CC1CCCCC1,81.6 to 81.8
27,COC1(c2ccc(C)cc2)CCC(=NO)CC1 (stereo not given),114 to 116

row,Structure (SMILES),melting point [°C]
1,CC(C)C(=O)OC1C(n2ccc(N)nc2=O)OC(COC(=O)c2ccc(Cl)cc2)C1(C#C[Si](C)(C)C)OC(=O)C(C)C (stereo not given),97 to 99
2,Cc1c(O)c(=O)[nH]c2cc(Cl)ccc2c1=O,277 to 279
3,Fc1ccc([C@@H]2Cc3cnc(Nc4ccc(CCN5CCCCC5)cc4)nc3-c3ccccc32)cc1,185 to 188
4,COC(=O)c1cc(-c2ccc(-c3nccs3)cc2)n(-c2ccc(S(N)(=O)=O)cc2)n1,204 to 206
5,COC(=O)[C@@H]1CCCN1S(=O)(=O)c1ccc(Cl)c(COc2cccc3c(C)cc(C)nc23)c1OC,66 to 70
6,Oc1cc(-c2ccc(Cl)cc2)[nH]n1,240 to 241
7,NCCCCn1c(-c2ccccc2)nc2c(N)nc3ccccc3c21,175 to 177
8,CCCCc1nc(SC)cn1Cc1ccc(-c2ccccc2S(=O)(=O)N=CN(C)C)cc1,148
9,O=C(Nc1cccc(F)c1)Nc1ccnc(C(F)(F)F)c1,165 to 167
10,O=c1[nH]c2cc(Cl)ccc2c(O)c1-c1ccc(I)cc1,> 350
11,N=C(N)NCCCC(NC(=O)CCS)C(=O)O (stereo not given),230
12,CS(=O)(=O)c1ccc(-c2cnn(CC(=O)c3ccc(C(=O)O)cc3)c(=O)c2-c2ccc(F)cc2)cc1,239 to 241
13,C=C(CC)C(=O)c1ccc(OC2(C(=O)O)CCC2)c(Cl)c1Cl,120
14,CC(O)c1ccc2cc(OCc3ccccc3)ccc2c1 (stereo not given),97 to 98
15,CC(C)(c1ccncn1)C(O)(Cn1cncn1)c1ccc(F)cc1F (stereo not given),126 to 127
16,c1cncc(-c2cccn3cnnc23)c1,186 to 189
17,Cn1c(C(=O)O)cc2c(OC[C@@H](O)CN3CCC(c4ccc5ccccc5c4)CC3)cccc21,158 to 161
18,CC(C)(C)OC(=O)N[C@H]1COC1=O,120 to 122
19,CCCC1(CC)Cc2cc(OCC(=O)O)c(Cl)c(Cl)c2C1=O (stereo not given),126
20,COc1c(Oc2ccccc2C)cccc1C(N)C(=O)O (stereo not given),169 to 170
21,CON(C)C(=O)c1cc(Br)ccc1N,80 to 81
22,Cc1ccc(S(=O)(=O)c2ccc(O)cc2)c(Br)n1,99 to 102
23,N#Cc1ccc2nc(-c3ccc(Br)cc3)cn2c1,262 to 264
24,COc1cc(Nc2nc3cccc(-c4ccc(C(N)=O)cc4)c3o2)cc(OC)c1OC,> 280
25,CCn1c(=O)sc2cc(N3C[C@H](C(=O)NC)OC3=O)ccc21,227 to 229
26,CCc1ccc(-c2ccc(C(C)=S)cc2)cc1,84 to 86
27,CSc1nc(C)cc(-c2ccc(C(F)(F)F)cc2)n1,77 to 80

row,Structure (SMILES),melting point [°C]
1,O=C1NCC2(CCN(C(=O)OCc3ccccc3)CC2)O1,126 to 128
2,Nc1cc(=O)n(Cc2cccc(Br)c2)[nH]1,160
3,CCS(=O)(=O)CCC(=O)NNC(=O)N1Cc2cc(Cl)ccc2Oc2ccc(Cl)cc21,189 to 190
4,CC1(C)NC(=O)CN1C(=O)CBr,137 to 138
5,CC(=O)OC1CSC(Oc2cc(-c3ccc(F)nc3)cnc2Cl)C(OC(C)=O)C1OC(C)=O (stereo not given),70 to 90
6,CC1CCN(CCC(=O)Nc2ccc3c(=O)c4ccc(NC(=O)CCN5CCC(C)CC5)cc4[nH]c3c2)CC1,> 320
7,COc1cc(C(=O)O)ccc1Cc1cccc2ccc(C(N)=O)cc12,283 to 285
8,Nc1ccsc1-c1nc(C2CC2)no1,51 to 54
9,Cc1noc2ncnc(NCCC(C)C)c12,133
10,COc1ccc2c(CC(=O)O)c(C(=O)c3cc(C)ccn3)[nH]c2c1,204
11,O=S1(=O)Cc2cc(Cl)ccc2Oc2ccccc21,159 to 166
12,CCNC1=NN(c2cccc(C(F)(F)F)c2)CC1,172
13,c1cc(C2NCCc3sccc32)ccn1 (stereo not given),81.8 to 83.8
14,Cc1nc(N2CCCC(Cc3ccc(C(F)(F)F)cc3)C2=O)sc1C(=O)NCc1cccc(F)c1 (stereo not given),177 to 178
15,Cc1cc2c(N=C3SC[C@@H]4Cc5ccccc5CN34)cccc2cn1,181
16,c1cc2[nH]ncc2cc1OC1CCCC1,141 to 142
17,CN(C)C1(c2ccccc2)CCC(CNC(=O)N2CC=C(c3c[nH]c4ccc(Cl)cc34)CC2)CC1 (stereo not given),183 to 185
18,O=C(CSCc1ccc(Cl)c(Cl)c1)NO,75 to 76
19,CC1CCC2(C)C(=CCC3C4CCC(=O)C4(C)CCC32)C1 (stereo not given),148 to 150
20,O=S1(=O)c2ccccc2Oc2cc(OCC(F)(F)F)ccc21,165 to 166
21,CCOC(=O)c1snc(C(=O)OC(C)(C)C)c1N,68 to 69
22,Cc1ccccc1C(=O)Nc1cccc(C(C)C)c1,70 to 71
23,CCCS(=O)c1nc(OS(C)(=O)=O)c(Cl)cc1Cl (stereo not given),92 to 94
24,C=CC(C)=CC=C(C(C)=CC(=O)OC1C(CO)OC(OC)C(O)C1O)c1c(C)cc(OC)c(C)c1C (stereo not given),159 to 160
25,O=c1c2c(cnn1Cc1ccccc1)C(Cc1ccccc1)NCCO2 (stereo not given),70
26,Cc1cc(I)ccc1Nc1c(-c2nnc(N)o2)ccc(F)c1F,184
27,CC(C)(C)c1cc(C#N)c(Nc2ccccc2[N+](=O)[O-])s1,85 to 90

row,Structure (SMILES),melting point [°C]
1,COc1ccc(C(=O)Nc2cc3c(cc2CCC2CCCCN2C)OCO3)cc1 (stereo not given),112 to 113
2,NC(Cc1ccccc1)C(=O)NC1CCN(c2nc3c(cc2F)c(=O)c(C(=O)O)cn3C2CC2)C1 (stereo not given),216 to 219
3,CC(=O)NC(CSC(=O)C(C)C)C(=O)NCCSC(C)=O (stereo not given),116 to 118
4,CC(C)(C)OC(=O)[C@@H]1CCC(=O)N1Cc1ccccc1,59 to 63
5,CN(c1cc(Cl)ncn1)n1cccc1,88 to 89
6,Cc1cc2c(nc1C(O)c1cccs1)CCCCC2 (stereo not given),102 to 104
7,Cc1cc(C)c(CCCc2c(C)nc(N)nc2N)cc1C,188 to 190
8,CN1CCC(c2c[nH]c3ccc([N+](=O)[O-])cc23)CC1,200 to 202
9,CC(=O)c1ccc(-c2ccc(Br)cc2)c(F)c1,89 to 91
10,O=c1oc(-c2cccc(-c3ccccc3)c2)cc(O)c1Sc1ccccc1CC1CC1,88
11,Cn1nnnc1-n1cc(C(=O)O)c(=O)c2cc(F)c(Cl)nc21,213 to 220
12,COC(=O)CCCCCCCCCCCCCCCCCCCS(=O)(=O)c1ccc(C)cc1,72.5 to 73.5
13,CC(C)(C)OC(=O)c1ccc(N)cc1F,100 to 101
14,COc1ccc(-c2cc(=Nc3c(C)cc(C)cc3C)n(C)c(=O)n2C)cc1N,176 to 178
15,CS(=O)(=O)c1ccc(Oc2cc(OCc3ccccc3)c3[nH]c(C4=NCC(CC(N)=O)S4)cc3c2)cc1 (stereo not given),134 to 135
16,Cc1cccc(-c2coc3cc(O)c(O)cc3c2=O)c1,258
17,CCc1c(C(=O)c2ccc(OC)cc2)c2cccc3c2n1C(CN1CCOCC1)CO3 (stereo not given),186 to 187
18,CCn1ccc(=O)c2cnc(-c3cccnc3)nc21,195 to 196
19,COC(=O)C[C@@H](CC(=O)C=Cc1c(-c2ccc(F)cc2)c(-c2ccc(F)cc2)c(C(=O)Nc2ccc(S(N)(=O)=O)cc2)n1C(C)C)O[Si](C)(C)C(C)(C)C,108 to 110
20,Cc1cc(-c2ccnc(NCc3ccccc3)c2)n(-c2cccc(F)c2)n1,94 to 96
21,COc1cc(OC)cc(OC(=S)N(C)C)c1,77 to 78
22,COc1ccc(Nc2nc(Cl)cc3ccccc23)cc1,101
23,CC(C)c1ccc(Cc2ccc(CC#N)n2C)cc1,59 to 64
24,CCN1C(Cl)=NC(OC)=NS1(=O)=O,63 to 70
